Assays:
[1] = tested on: KLRG-1, CTLA-4, TIM-3, PD-1, IFNγ/Granzyme B, FoxP3; experiment: Ex vivo flow cytometry of splenocytes after seven doses, murine melanoma model (Example 13); format: in vivo, mice; details: 7 doses, Compound B 4 mg/mouse PO QD, Compound C 2.5 mg/mouse IV QD; for inhibition of CTLA-4 as compared to control / inhibition of KLGR-1 as compared to control / inhibition of PD-1 as compared to control / inhibition of TIM-3 as compared to control: CD8+ splenocytes, one mouse per group
Description: This study was designed to evaluate the effects of Compound B and Compound C on tumor growth and the overall survival of animals implanted SC with 10^5 melanoma cells. Furthermore, ex vivo analysis of splenocytes at the end of dosing was used to evaluate change in the T-cell population and function. FIG. 8A is a diagram of the study design.
(§1) Animals were housed four per cage and had access to food and water ad libitum. Compound B was dissolved in sterile PBS, and pH was adjusted to approximately 7.5. Compound C was first dissolved in DMSO before diluting in sterile PBS. Sterile PBS was used as a control. Compound B was dosed at 4 mg/mouse PO QD. This dose was expected to result in an exposure equivalent to a 1 mg/mouse IV dose. Compound C was dosed at 2.5 mg/mouse IV.
(§2) B16F10 melanoma cells were grown in RPMI 1640 media supplemented with 10% FBS and antibiotics (penicillin/streptomycin) using T75 flasks. When cells reached 70-80% confluency, they were treated with 3 ml of 0.25% trypsin/EDTA. Detached cells were harvested. A single-cell suspension was prepared in PBS. A dorsal SC injection of 10^5 cells in mice marked day 0 of the experiment. Animals were monitored daily, and tumors were measured twice a week.
For tumor growth inhibition, animals were divided into 3 groups. The control group received an IV injection of PBS to match the start time, dosing volume, and dosing frequency of the Compound C treatment group. The treatment group received 100 μl of 4 mg/mouse PO QD of Compound B for 7 days starting at day 7 after tumor implantation, or 2.5 mg/mouse IV QD of Compound C. The endpoint was reached when the tumor reached 1 cm^3. Tumor volume was calculated using the following formula: […]
On day 14, one mouse from each group was sacrificed for ex vivo analysis. One animal with an average tumor size was selected from the control group and the Compound B treatment group. Since no animals in the Compound C treatment group had any visible tumors by day 14, one mouse was selected at random from the Compound C treatment group.
Spleens were collected and a single-cell suspension was prepared for cellular phenotyping by flow cytometry. Cells were stained and gated for CD8. IFNγ, Granzyme B (GzmB), KLRG-1, CTLA-4, TIM-3, and PD-1 expression was evaluated. Cells gated for CD4 were evaluated for FoxP3 expression.

murine CD8+ T-cells = experiment: Murine CD8+ T-cell proliferation concentration-response (CFSE), Example 7; format: cell-based, C57BL/6 mice; details: for CD8+ T-cell proliferation: 0.001-30 mM, absence of PS, low dose ConA; for model estimated EC80, CD8+ T-cell proliferation: in the presence of 0.1 mM PS, log-logistic model; for reversal of suppressive effects of PS on T-cell proliferation: increasing doses, 0.1 mM PS liposomes
From the text: In this study, the effects of increasing doses of compound B and compound C on proliferation (CFSE staining), activation (Granzyme B and IFN-γ), and checkpoint modulation (PD1 and TIM3) of murine CD8+ T-cells in the presence and absence of phosphatidylserine (PS) were explored.
Preparation of test materials: 30:70 PS:DMPC liposomes were synthesized in PBS. […] Compound C was first dissolved in a small volume of DMSO before diluting to the final desired concentration.
Tissue culture and dosing: Splenocytes of C57BL/6 mice were stained with CFSE and prepared, cultured, and dosed. Cells were seeded at 4×10^5 cells/well.
Controls: Two controls were used. A negative control dosed with 10 ng/ml IL-2 was used, and a positive control dosed with 20 μg/ml ConA and 10 ng/ml IL-2 was used.
Treatment: After ConA stimulation (10 μg/ml), cells were dosed with log 3 dilution of compound B or compound C to cover a range from 1×10^−3 to 30 mM in duplicates with or without 0.1 mM PS:DMPC liposomes. All wells were dosed with 10 ng/ml of IL-2.
Flow cytometer: Flow cytometer analysis was performed to assess cell proliferation by CFSE, activation by double staining for Granzyme B (GzmB) and IFN-γ, checkpoint modulation by double staining for PD-1 and TIM3.
Exposure-response analysis: Change from baseline was calculated for each marker as follows:
Concentration versus change was fitted to an appropriate three-, four- or five-parameter log-logistic model using “dre” package in “R.”
The fold change from baseline of CD8+ T-cells proliferation as a function of increasing doses of compound B was calculated using equation 1, where ResponseControl was the proliferation of cells treated with IL-2 alone and Responsetreatment was the proliferation at each dose of compound B. The baseline PS response was calculated using the same equation where Responsetreatment was the proliferation of cells treated with 0.1 mM PS.

murine CD8+ T cells = experiment: Murine CD8+ T-cell proliferation (CFSE), Example 6; format: cell-based, C57BL/6 mice; details: 30 mM, ConA 10 μg/ml
Description: Preparation of test materials: TTA, compound A and compound B were formulated in RPMI media under aseptic conditions. The pH was adjusted to approximately 7.5 before dosing cells.
Tissue culture and dosing: Splenocytes of C57BL/6 mice were stained with CFSE and prepared, cultured, and dosed. Cells were seeded at 1×10^5 cells/well in a 96-well round-bottomed plate.
Controls: Two controls were used. A negative control dosed with 10 ng/ml IL2 was used, and a positive control dosed with 20 μg/ml ConA and 10 ng/ml IL2 was used.
Treatment: After ConA stimulation (10 μg/ml), cells were dosed with 30 mM compound A, B or C with or without 0.1 mM 30:70 PS:DMPC liposomes. All wells were dosed with 10 ng/ml of IL-2.

Granzyme B and IFN-γ = experiment: Dose-response of GranzymeB/IFN-γ double positivity in murine CD8+ T-cells, Example 9; format: cell-based, C57BL/6 mice; details: Mus musculus, T-cell; for Emax: FIG. 4, 5-parameter fit, read-out: maximal response (GzmB/IFN-γ double positive CD8+ T-cells)
Description: A dose-response analysis of compounds B-E in murine CD8+ T-cells was conducted to evaluate the effect of dose on GranzymeB/IFN-γ double positivity.
Compound C, D and E were first dissolved in a small volume of DMSO before diluting to the final desired concentration.
Splenocytes from naïve C57BL/6 mice were stained with CFSE, prepared, cultured, and dosed. Cells were seeded at 2×10^5 cells/well. Negative control was dosed with 10 ng/ml IL-2. After ConA stimulation (10 μg/ml), cells were dosed with log 3 dilution of each compound from 3×10^−9 to 30 µM in triplicates. All wells were dosed with 10 ng/ml of IL-2.
Flow cytometer analysis was performed to assess percent CD8+ T-cells and percent activation by double staining for Granzyme B (GzmB) and IFN-γ as described in Example 7. Concentration versus response curve was fitted to a 4- or 5-parameter log-logistic model using the “dre” package in “R”. Both EC50 and EC90 were obtained by model fitting.

[2] = Body weight change in murine melanoma model (Example 13); format: in vivo, mice; details: Compound B 4 mg/mouse PO QD x7, Compound C 2.5 mg/mouse IV QD
Description: as §1, §2

| SMILES | decrease in FoxP3 positive CD4+ T-cells compared to placebo [1] [%] | increase in GrzmB/INFγ double-positive CD8+ T-cells compared to placebo [1] [%] | inhibition of CTLA-4 as compared to control [1] [%] | inhibition of KLGR-1 as compared to control [1] [%] | inhibition of PD-1 as compared to control [1] [%] | inhibition of TIM-3 as compared to control [1] [%] | CD8+ T-cell proliferation (murine CD8+ T-cells) | target concentration considered an effective dose (murine CD8+ T-cells; based on Example 7 analysis) [mM] | model estimated EC80, CD8+ T-cell proliferation (murine CD8+ T-cells) [nM] | reversal of suppressive effects of PS on T-cell proliferation (murine CD8+ T-cells) | percent of CD8+ T-cell proliferation (murine CD8+ T cells; in absence of PS) [%] | EC50 (Granzyme B and IFN-γ; 4-parameter model) [nM] | EC90 (Granzyme B and IFN-γ; 4-parameter model) [nM] | EC50 (Granzyme B and IFN-γ; 5-parameter model) [nM] | EC90 (Granzyme B and IFN-γ; 5-parameter model) [nM] | Emax (Granzyme B and IFN-γ) [%] | greatest measured weight loss [2] [%] | doses at which proliferation overlapped with that in absence of PS (murine CD8+ T-cells; 0.1 mM PS) | percent of CD8+ T-cell proliferation (murine CD8+ T cells; in the presence of 0.1 mM PS) [%] |
| --- | --- | --- | --- | --- | --- | --- | --- | --- | --- | --- | --- | --- | --- | --- | --- | --- | --- | --- | --- |
| O=C(O)[C@H](O)[C@@H](O)C(=O)OCCCc1ccccc1 [Compound B, (2R,3R)-2,3-dihydroxy-4-oxo-4-(3-phenylpropoxy)butanoic acid] | 1.5 | 25 | 42 | 55 | 13 | 63 | robust proliferation | 0.1 | 139000 | partially reversed | 78.3 | 9.8 | 950 | 11 | 3000 | ~60 | 3 |  |  |
| O=C(O)[C@H](O)[C@@H](O)C(=O)OCCC(c1ccccc1)c1ccccc1 [Compound C, (2R,3R)-4-(3,3-diphenylpropoxy)-2,3-dihydroxy-4-oxobutanoic acid] | 59 | 62 | 77 | 70 | 70 | 71 | robust proliferation |  | 14600 | completely reversed | 84.5 | 43 | 29000 | 42 | 28000 | ~60 | 1.5 | greater than 0.03 mM | 55.5 |
